Reference: patent US20120301443A1, “METHODS FOR DEVELOPING ENDOTHELIAL CELLS FROM PLURIPOTENT CELLS AND ENDOTHELIAL CELLS DERIVED” (CORNELL UNIVERSITY, priority 2009, published 2012)

Key:
Assay type in all cases: cell-based, human
[1] = test system: hVPr-GFP hESCs; assay: Endothelial (EC) differentiation of hVPr-GFP hESC embryoid bodies (phase 1)
Protocol: Human VPr-GFP hESCs were grown to confluence on Matrigel™ (BD Bioscience) and then incubated in 5 units/ml dispase (Gibco) until colonies were completely detached from the substrate. Human VPr-GFP EBs were washed and cultured in hESC medium on ultra low attachment plates (Corning) and cultured in the conditions described, with replacement of cytokine supplemented medium every 48 hours. Embryoid bodies were fixed in 4% paraformaldehyde and frozen for cryosectioning and staining.
Embryoid bodies were generated and cultured in base hESC medium, supplemented with the cytokines as shown. Briefly, embryoid bodies were generated in hESC base medium without FGF-2. On the morning following generation of EBs (day 0), medium was supplemented with 20 ng/ml BMP4 (R&D) (removed at day 7); on day 1, medium was supplemented with 10 ng/ml ActivinA (R&D) (removed at day 4); on day 2, medium was supplemented with 8 ng/ml FGF-2 (Peprotech) (remained for the duration of culture); on day 4, EBs were transferred to adherent conditions on Matrigel™-coated plates and medium was supplemented with 25 ng/ml VEGF-A (Peprotech) (remained for the duration of culture); […] duration. Cultures were dissociated using 0.5% Trypsin/EDTA (Gibco) or Accutase (eBioscience). Absolute yield as well as ratio of input hESCs to differentiated ECs was calculated from the number of live cells recovered from differentiation cultures at days 0, 14 and 20. Purified ECs could be frozen and thawed in 10% DMSO with greater than 90% recovery.
(§1) ECs were isolated from differentiation cultures using Magnetic Activated Cell Sorting (MACS; Miltenyi Biotech) with an antibody against CD31 conjugated to magnetic microbeads. Alternatively, cells were isolated by virtue of the expression of GFP/YFP or a fluorophore conjugated antibody to human CD31 or VEGFR2 (BD) using a FACS AriaII (BD).
Total RNA was prepared from cultured cells using the RNeasy™ extraction kit (Qiagen) and reverse transcribed using Superscript II reverse transcriptase (Invitrogen) according to the manufacturer's instructions. Relative quantitative PCR was performed on a 7500 Fast Real Time PCR System (Applied Biosystems) using either TaqMan PCR mix along with Id1 and β-actin primer pairs, or SYBR Green PCR mix (Applied Biosystems). […]
This EC reporter hESC line was also used to monitor the development of a chemically defined, serum-free methodology that could effectively augment vascular differentiation, consisting of two phases. […] Although these growth conditions promoted formation of hVPr-GFP^+ structures, the yield of dissociated hESC-derived ECs obtained by fluorescence-activated cell sorting (FACS) was low, and the few isolated ECs could not be expanded without the majority of derivatives assuming a non-EC phenotype. […]

[2] = test system: hESC-derived ECs; assay: Expansion of isolated hESC-derived ECs with or without SB431542 (phase 2)
Protocol: (§2) Embryoid bodies were generated and cultured in base hESC medium, supplemented with the cytokines as shown. Briefly, embryoid bodies were generated in hESC base medium without FGF-2. On the morning following generation of EBs (day 0), medium was supplemented with 20 ng/ml BMP4 (R&D) (removed at day 7); on day 1, medium was supplemented with 10 ng/ml ActivinA (R&D) (removed at day 4); on day 2, medium was supplemented with 8 ng/ml FGF-2 (Peprotech) (remained for the duration of culture); on day 4, EBs were transferred to adherent conditions on Matrigel™-coated plates and medium was supplemented with 25 ng/ml VEGF-A (Peprotech) (remained for the duration of culture); on day 7, SB431542 (Tocris) was added at 10 μM concentration and remained for indicated duration. Cultures were dissociated using 0.5% Trypsin/EDTA (Gibco) or Accutase (eBioscience). Absolute yield as well as ratio of input hESCs to differentiated ECs was calculated from the number of live cells recovered from differentiation cultures at days 0, 14 and 20. Purified ECs could be frozen and thawed in 10% DMSO with greater than 90% recovery.
as §1
Cryosections were immunocytochemically stained as previous described (James et al., Dev. Biol. 295: 90-102 (2006)). Briefly, samples were permeabilized in PBST and blocked in 5% donkey serum. Samples were incubated for 2 hours in primary antibodies blocking solution, washed 3 times in PBS and incubated in CY3-conjugated secondary antibodies (Jackson Laboratories) for 1 hour. Following washing some sections were counterstained for nucleic acids by TO-PRO3 (Invitrogen) before mounting and imaging by confocal microscopy. Primary antibodies included CD31 (DAKO), CD34 (DAKO), Phospho-HistoneH3, Smooth Muscle Actin (SMA) (DAKO) and VE-cadherin (R&D). […]

[3] = test system: hESC-derived ECs; assay: Absolute yield and ratio of input hESCs to differentiated ECs over phases 1 and 2
Protocol: as §2

[4] = test system: Id1-YFP hESC-derived CD31+ cells; assay: Id1-YFP hESC-derived CD31+ cells expanded with and without the TGFβ-inhibitor, flow cytometry
Protocol: A bacterial artificial chromosome (BAC) was modified in order to place yellow fluorescent protein (YFP) under control of the endogenous human Id1 promoter locus. This reporter construct was electroporated into the H9 hESC line, selected for BAC integration using antibiotic resistance and subcloned. Clones were assessed and selected based on expression of YFP in Id1 hESC derivatives following spontaneous differentiation. […] To track Id1 expression in live hESC differentiation cultures, a stable BAC transgenic hESC-line expressing yellow fluorescent protein driven by the Id1-promoter (Id1-YFP) (Example 3 herein) was used (FIG. 3A-C). Differentiated ECs were isolated at day 14 from Id1-YFP cultures (FIG. 1d), sub-fractionating the CD31+ population into Id1-YFP high- and low-expressing cells, and these populations were serially expanded for seven days with and without the TGFβ-inhibitor (FIG. 3B).

[5] = ECs isolated at day 14, 5 days with vs without SB431542

For `NC(=O)c1ccc(-c2nc(-c3ccc4c(c3)OCO4)c(-c3ccccn3)[nH]2)cc1` [SB431542, 4-[4-(1,3-benzodioxol-5-yl)-5-(2-pyridinyl)-1H-imidazol-2-yl]benzamide], the “Oct3/4 and brachyury transcripts” value ([1]; QPCR, normalized to ACTB, time course of differentiation) was “accelerated the reduction”, the “hVPr-GFP+ ECs when inhibitor is included from the onset of differentiation” value ([1]; SB431542 from day 0) was “absence of hVPr-GFP+ ECs” and the “hVPr-GFP+CD31+ ECs” value ([1]; beginning at 9 days) was “significant increase”. The “expression of SMA” value ([1]; time course of differentiation) was “reducing expression of SMA”, the “cell yield of isolated ECs” value ([2]; ECs isolated at day 14, 5-day culture period with vs without SB431542) was “yielded more cells” and the “cell proliferation, percentage of Phospho-HistoneH3+ (PHH3) mitotic ECs” value [2, 5] was “increased cell proliferation”. The “percentage of total population retaining α-SMA− CD31+ VEcadherin+ phenotype” value [2, 5] was “higher percentage”, the “expansion in total number of vascular-committed hESC-derived ECs” value ([3]; TGFβ inhibition in phase 1 and 2, 20 days, vs control culture conditions) was 36 fold and the “population maintaining EC identity” value ([3]; after phase 1 and phase 2 TGFβ-inhibition) was 95%. For the same molecule, the “ratio of ECs generated from every one hESC input” value ([3]; over the course of 20 days) was 7.4 ECs per input hESC, the “mean fluorescence intensity of CD31” value ([4]; relative to unstimulated cells) was “decreased” and the “percentage of the CD31+ population” value ([4]; relative to unstimulated cells) was “increased”. The “Id1 expression (Id1-YFP)” value ([4]; seven days expansion with and without TGFβ-inhibitor) was “up-regulation of Id1 expression”.
